“And” between values parts separate entries of the source, which are not always exact repeats. Equal values may be shown once.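 These data come from cells grown in 96-well plates and exposed to compound for 48 hours at five concentrations. Here, GI50 denotes the concentration required for 50% inhibition of growth. TGI: total growth inhibition.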
Assays:
Test in all cases: growth of human tumour cells (NCI), 48 h
ACHN renal = system: ACHN renal
HCT-116 colon = system: HCT-116 colon
HL-60(TB) leukemia = system: HL-60(TB) leukemia
MDA-MB-231 breast = system: MDA-MB-231 breast
MOLT-4 leukemia = system: MOLT-4 leukemia
NCI-H23 lung = system: NCI-H23 lung
NCI-H522 lung = system: NCI-H522 lung
RPMI-8226 leukemia = system: RPMI-8226 leukemia
SR leukemia = system: SR leukemia
SW-620 colon = system: SW-620 colon

## Cc1[nH]c2ccccc2c1CCCO
ACHN renal
  GI50: > 100 µM
  TGI: > 100 µM
HCT-116 colon
  GI50: > 100 µM
  TGI: > 100 µM
HL-60(TB) leukemia
  GI50: > 100 µM
  TGI: > 100 µM
MDA-MB-231 breast
  GI50: > 100 µM
  TGI: > 100 µM
MOLT-4 leukemia
  GI50: > 100 µM
  TGI: > 100 µM
NCI-H23 lung
  GI50: > 100 µM
  TGI: > 100 µM
NCI-H522 lung
  GI50: > 100 µM
  TGI: > 100 µM
RPMI-8226 leukemia
  GI50: > 100 µM
  TGI: > 100 µM
SR leukemia
  GI50: > 100 µM
  TGI: > 100 µM
SW-620 colon
  GI50: > 100 µM
  TGI: > 100 µM

## O=C1NNC2(C(=O)N1)c1ccccc1-c1ccccc12
ACHN renal
  TGI: > 10 µM
HCT-116 colon
  TGI: > 10 µM
HL-60(TB) leukemia
  TGI: > 10 µM
MDA-MB-231 breast
  TGI: > 10 µM
MOLT-4 leukemia
  TGI: > 10 µM
NCI-H23 lung
  TGI: > 10 µM
NCI-H522 lung
  TGI: > 10 µM
RPMI-8226 leukemia
  TGI: > 10 µM
SR leukemia
  TGI: > 10 µM
SW-620 colon
  TGI: > 10 µM

## O=C1/C(=C/c2ccccc2)CN(C(=O)CCN2CCOCC2)C/C1=C\c1ccccc1
ACHN renal
  TGI: 11.3 µM
HCT-116 colon
  TGI: 2.04 µM
HL-60(TB) leukemia
  TGI: 6.51 µM
MDA-MB-231 breast
  TGI: 9.78 µM
MOLT-4 leukemia
  TGI: 21.6 µM
NCI-H23 lung
  TGI: 6.13 µM
NCI-H522 lung
  TGI: 4.46 µM
RPMI-8226 leukemia
  TGI: 3.3 µM
SR leukemia
  TGI: 4.04 µM
SW-620 colon
  TGI: 1.55 µM

## Cc1ccccc1OCC(O)CN1CCN(c2ccc(Cl)cc2)CC1 (centres undefined)
ACHN renal
  GI50: 18.8 µM
  TGI: 42.2 µM
HCT-116 colon
  GI50: 14.6 µM
  TGI: 29.3 µM
HL-60(TB) leukemia
  GI50: 17.6 µM
  TGI: 56 µM
MDA-MB-231 breast
  GI50: 14.4 µM
  TGI: 29.8 µM
MOLT-4 leukemia
  GI50: 14.7 µM
  TGI: 57.5 µM
NCI-H23 lung
  GI50: 15.8 µM
  TGI: 34.5 µM
NCI-H522 lung
  GI50: 14.1 µM
  TGI: 29.2 µM
RPMI-8226 leukemia
  GI50: 16.3 µM
  TGI: 40.8 µM
SR leukemia
  GI50: 14.3 µM
  TGI: 40.1 µM
SW-620 colon
  GI50: 16.1 µM
  TGI: 33.1 µM

## C[C@H]1CC[C@@]2(NC1)O[C@H]1C[C@H]3[C@@H]4CC[C@H]5C[C@@H](O)CC[C@]5(C)[C@H]4CC[C@]3(C)[C@H]1[C@@H]2C
ACHN renal
  GI50: 11.2 µM
  TGI: 21.9 µM and > 100 µM
HCT-116 colon
  GI50: 8.32 µM
  TGI: 17.3 µM and > 100 µM
HL-60(TB) leukemia
  GI50: 42.5 µM
  TGI: 50 µM and > 100 µM
MDA-MB-231 breast
  GI50: 7.26 µM
  TGI: 15.9 µM and > 100 µM
MOLT-4 leukemia
  GI50: > 50 µM
  TGI: > 100 µM
NCI-H23 lung
  GI50: 8.92 µM
  TGI: 19.7 µM and > 100 µM
NCI-H522 lung
  GI50: 13.6 µM
  TGI: 29.3 µM and > 100 µM
RPMI-8226 leukemia
  GI50: 7.82 µM
  TGI: 31.4 µM and > 100 µM
SR leukemia
  TGI: > 100 µM
SW-620 colon
  GI50: 24.9 µM
  TGI: 50 µM

## COc1cccc(-c2c[nH]c3c(N/N=C/c4ccncc4)ncnc23)c1
ACHN renal
  GI50: 1.37 µM
  TGI: > 22.9 µM
HCT-116 colon
  GI50: 1.24 µM
  TGI: 5.36 µM
HL-60(TB) leukemia
  GI50: 1.7 µM
  TGI: 7.35 µM
MDA-MB-231 breast
  GI50: 3.83 µM
  TGI: > 22.9 µM
MOLT-4 leukemia
  GI50: 4.42 µM
  TGI: 19.6 µM
NCI-H23 lung
  GI50: 2.98 µM
  TGI: 11.8 µM
NCI-H522 lung
  GI50: 2.25 µM
  TGI: 7.78 µM
RPMI-8226 leukemia
  GI50: 5.62 µM
  TGI: 14.4 µM
SR leukemia
  GI50: 0.872 µM
  TGI: > 24.1 µM
SW-620 colon
  GI50: 1.5 µM
  TGI: 5.39 µM

## Cc1c(C(=O)Nc2ccccc2)sc2ncn(Cc3cccc(Cl)c3)c(=O)c12
ACHN renal
  GI50: 30.2 µM
  TGI: > 100 µM
HCT-116 colon
  GI50: 19.2 µM
  TGI: > 100 µM
HL-60(TB) leukemia
  GI50: 16.3 µM
  TGI: > 100 µM
MDA-MB-231 breast
  GI50: 12.1 µM
  TGI: 38.2 µM
MOLT-4 leukemia
  GI50: 51.8 µM
  TGI: > 100 µM
NCI-H23 lung
  GI50: 6.5 µM
  TGI: > 100 µM
NCI-H522 lung
  GI50: 19 µM
  TGI: > 100 µM
RPMI-8226 leukemia
  GI50: 10.4 µM
  TGI: > 100 µM
SR leukemia
  GI50: 14.8 µM
  TGI: 53 µM
SW-620 colon
  GI50: 53.3 µM
  TGI: > 100 µM

## Cc1ccc(S(=O)(=O)c2c(COC(=O)c3cccc(C)c3)c(-c3ccccc3)nn2C)cc1
ACHN renal
  GI50: > 100 µM
  TGI: > 100 µM
HCT-116 colon
  GI50: > 100 µM
  TGI: > 100 µM
HL-60(TB) leukemia
  GI50: > 100 µM
  TGI: > 100 µM
MDA-MB-231 breast
  GI50: > 100 µM
  TGI: > 100 µM
MOLT-4 leukemia
  GI50: > 100 µM
  TGI: > 100 µM
NCI-H23 lung
  GI50: > 100 µM
  TGI: > 100 µM
NCI-H522 lung
  GI50: > 100 µM
  TGI: > 100 µM
RPMI-8226 leukemia
  GI50: > 100 µM
  TGI: > 100 µM
SR leukemia
  GI50: > 100 µM
  TGI: > 100 µM
SW-620 colon
  GI50: > 100 µM
  TGI: > 100 µM
